Activity calls are given as the source filed them. The calls are words filed in the database; no cut-off is given here.
Tests used:
[1] = test system: Streptococcus mutans; assay: Antibacterial activity against Streptococcus mutans MT8148 assessed as growth inhibition at 5 to 20 ug/ml after 24 hrs by microplate reader analysis; assay type: functional, organism-based
[2] = test system: Streptococcus parasanguinis; assay: Antibacterial activity against […] ATCC 903 assessed as effect on growth at 5 to 20 ug/ml after 24 hrs by microplate reader analysis; assay type: functional
[3] = test system: Porphyromonas gingivalis; assay: Antibacterial activity against Porphyromonas gingivalis ATCC 33277 assessed as growth inhibition at 5 to 20 ug/ml after 100 hrs by microplate reader analysis; assay type: functional, organism-based
[4] = test system: Streptococcus oralis; assay: Antibacterial activity against Streptococcus oralis SK23 assessed as effect on growth at 5 to 20 ug/ml after 24 hrs by microplate reader analysis; assay type: functional; details: ATCC 35037
[5] = test system: Streptococcus sobrinus; assay: Antibacterial activity against Streptococcus sobrinus MT10186 assessed as effect on growth at 5 to 20 ug/ml after 24 hrs by microplate reader analysis; assay type: functional, organism-based
[6] = test system: Porphyromonas gingivalis; assay: Antibacterial activity against Porphyromonas gingivalis ATCC 33277 assessed as growth inhibition at 10 to 20 ug/ml after 100 hrs by microplate reader analysis; assay type: functional, organism-based
[7] = test system: Streptococcus mutans; assay: Antibacterial activity against Streptococcus mutans MT8148 assessed as growth inhibition at 20 ug/ml after 24 hrs by microplate reader analysis; assay type: functional, organism-based

Structure (SMILES) | growth inhibition (GI) [1] | Activity [2] | growth inhibition (GI) [3] | Activity [4] | Activity [5] | growth inhibition (GI) [6] | growth inhibition (GI) [7]
CC(C)(O)/C=C/CC1(C)C2CC3C(C2)C31C (stereo unspecified) | inactive | inactive | inactive | inactive | inactive |  | 
C=C[C@@]1(C)CC[C@]2(OC(=O)C=C2C)O1 |  | inactive |  | inactive | inactive |  | 
CC12CC(=O)O[C@H]3CC1CC[C@]32C |  | inactive |  | inactive | inactive |  | 
C=C(C)C(=O)CCC1(C)C2CC3C(C2)C31C (stereo unspecified) |  | inactive |  | inactive | inactive | Active | Active
